Measured values as given in ChEMBL document CHEMBL1201862, “PubChem BioAssay data set” (2004).
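The compound was tested at five concentrations on cells cultured in 96-well plates, with a 48-hour exposure period. GI50 marks 50% less growth.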 Activity calls are given as the source filed them. Rule as the data show it: active = GI50 up to about 1.1 µM and inactive = higher.

Legend:
Experiment in all cases: NCI anticancer screen, dose series, 48 h
[1] = system: HOP-62
[2] = system: KM12
[3] = system: NCI-H226
[4] = system: MCF7
[5] = system: LOX IMVI
[6] = system: NCI-H23
[7] = system: UO-31
[8] = system: HCC 2998
[9] = system: COLO 205
[10] = system: M14
[11] = system: OVCAR-3
[12] = system: HCT-116
[13] = system: IGROV-1
[14] = system: Hs-578T
[15] = system: HCT-15
[16] = system: OVCAR-5
[17] = system: PC-3
[18] = system: ACHN
[19] = system: DU-145
[20] = system: Malme-3M
[21] = system: SF-268
[22] = system: TK-10
[23] = system: NCI-H522
[24] = system: BT-549
[25] = system: A549
[26] = system: SK-OV-3
[27] = system: CAKI-1
[28] = system: MDA-MB-231
[29] = system: UACC-62
[30] = system: NCI/ADR-RES
[31] = system: SNB-19
[32] = system: NCI-H460
[33] = system: 786-0
[34] = system: EKVX
[35] = system: MDA-N
[36] = system: SF-295
[37] = system: SK-MEL-5
[38] = system: RXF 393
[39] = system: UACC-257
[40] = system: SF-539
[41] = system: OVCAR-4
[42] = system: SN12C
[43] = system: SW-620
[44] = system: SR
[45] = system: HT-29
[46] = system: HOP-92
[47] = system: MOLT-4
[48] = system: HL-60
[49] = system: MDA-MB-435
[50] = system: U-251
[51] = system: A498
[52] = system: SK-MEL-28
[53] = system: SNB-75
[54] = system: OVCAR-8
[55] = system: K562
[56] = system: SK-MEL-2
[57] = system: CCRF-CEM

NC(N)=NCCC(O)(P(=O)(O)O)P(=O)(O)O was tested, and the GI50 [1] was > 100 µM (inactive), the GI50 [2] was > 100 µM (inactive) and the GI50 [3] was > 100 µM (inactive). For the same molecule, the GI50 [4] was > 100 µM (inactive), the GI50 [5] was > 100 µM (inactive) and the GI50 [6] was > 100 µM (inactive). For the same molecule, the GI50 [7] was > 100 µM (inactive), the GI50 [8] was > 100 µM (inactive) and the GI50 [9] was > 100 µM (inactive). The GI50 [10] was > 100 µM (inactive), the GI50 [11] was > 100 µM (inactive) and the GI50 [12] was > 100 µM (inactive). For the same molecule, the GI50 [13] was > 100 µM (inactive), the GI50 [14] was 15 µM (inactive) and the GI50 [15] was over 100 µM. For the same molecule, the GI50 [16] was > 100 µM (inactive), the GI50 [17] was > 100 µM (inactive) and the GI50 [18] was > 100 µM (inactive). The GI50 [19] was > 100 µM (inactive), the GI50 [20] was > 100 µM (inactive) and the GI50 [21] was > 100 µM (inactive). For the same molecule, the GI50 [22] was > 100 µM (inactive), the GI50 [23] was > 100 µM (inactive) and the GI50 [24] was > 100 µM (inactive). The GI50 [25] was > 100 µM (inactive), the GI50 [26] was > 100 µM (inactive) and the GI50 [27] was > 100 µM (inactive). For the same molecule, the GI50 [28] was > 100 µM (inactive), the GI50 [29] was > 100 µM (inactive) and the GI50 [30] was > 100 µM (inactive). For the same molecule, the GI50 [31] was > 100 µM (inactive), the GI50 [32] was > 100 µM (inactive) and the GI50 [33] was 46.9 µM (inactive). For the same molecule, the GI50 [34] was > 100 µM (inactive), the GI50 [35] was > 100 µM (inactive) and the GI50 [36] was > 100 µM (inactive). For the same molecule, the GI50 [37] was > 100 µM (inactive), the GI50 [38] was > 100 µM (inactive) and the GI50 [39] was > 100 µM (inactive). The GI50 [40] was > 100 µM (inactive).
In the case of NC(=S)N/N=C1\C(=O)Nc2c(Cl)cc(Cl)cc21, the GI50 [41] is reported as 34 µM (inactive), the GI50 [1] is reported as 13 µM (inactive) and the GI50 [2] is reported as 18.9 µM (inactive). For the same molecule, the GI50 [42] was 19.5 µM (inactive), the GI50 [3] was 15.7 µM (inactive) and the GI50 [4] was 28 µM (inactive). For the same molecule, the GI50 [5] was 18.3 µM (inactive), the GI50 [6] was 37.6 µM (inactive) and the GI50 [43] was 30.5 µM (inactive). The GI50 [44] was 16.3 µM (inactive), the GI50 [7] was 28.1 µM (inactive) and the GI50 [8] was 34.5 µM (inactive). For the same molecule, the GI50 [9] was 20.2 µM (inactive), the GI50 [10] was 17.2 µM (inactive) and the GI50 [45] was 18.8 µM (inactive). The GI50 [11] was 11.7 µM (inactive), the GI50 [12] was 17.9 µM (inactive) and the GI50 [46] was 72.1 µM (inactive). The GI50 [13] was 22.5 µM (inactive), the GI50 [47] was 14 µM (inactive) and the GI50 [14] was 24 µM (inactive). The GI50 [48] was 12.4 µM (inactive), the GI50 [15] was 24.8 µM and the GI50 [16] was 81.7 µM (inactive). The GI50 [17] was 17.8 µM (inactive), the GI50 [49] was 16.7 µM (inactive) and the GI50 [18] was 37.4 µM (inactive). The GI50 [50] was 19.5 µM (inactive), the GI50 [20] was 16.2 µM (inactive) and the GI50 [51] was 32.4 µM (inactive). The GI50 [52] was 15 µM (inactive), the GI50 [53] was 19 µM (inactive) and the GI50 [22] was 73.1 µM (inactive). The GI50 [24] was 21 µM (inactive), the GI50 [25] was 31.3 µM (inactive) and the GI50 [26] was 41.9 µM (inactive). For the same molecule, the GI50 [27] was 41.2 µM (inactive), the GI50 [28] was 22.9 µM (inactive) and the GI50 [29] was 17.3 µM (inactive). For the same molecule, the GI50 [30] was 17.8 µM (inactive), the GI50 [31] was 31.3 µM (inactive) and the GI50 [32] was 17.1 µM (inactive). For the same molecule, the GI50 [33] was 22.9 µM (inactive), the GI50 [34] was 20.3 µM (inactive) and the GI50 [54] was 18.1 µM (inactive). For the same molecule, the GI50 [35] was 17.4 µM (inactive), the GI50 [55] was 29.6 µM (inactive) and the GI50 [56] was 15.5 µM (inactive). The GI50 [57] was 23.5 µM (inactive), the GI50 [36] was 19.2 µM (inactive) and the GI50 [37] was 14.4 µM (inactive). For the same molecule, the GI50 [38] was 16 µM (inactive), the GI50 [39] was 24.2 µM (inactive) and the GI50 [40] was 18.1 µM (inactive).
